Test system: ERK
Assay: ERK activation in neonatal rat ventricular myocytes (pERK/ERK Western blot)
Format: cell-based
Settings: NRVMs, norepinephrine 1 μM in the presence of propranolol 1 μM
Text: FIGS. 4A-4F. […] The reaction was stopped immediately and lysates were blotted for total and phospho-ERK (pERK). FIG. 4A. Representative Western blot. FIG. 4B. […] FIG. 4C. Summary of pERK/ERK for experiments using 5 different NRVM isolations. The average pERK/ERK ratio for each experiment was derived from at least 2 individual wells and normalized to the pERK/ERK ratio for vehicle treated NRVMs. FIG. 4D and FIG. 4E. […] Heart lysates were blotted for pERK and ERK. Results were compared using one way ANOVA with Tukey post-test. FIG. 4F.
Dabuzalgron protects neonatal rat ventricular myocytes from cell death due to doxorubicin. […] (FIG. 4C).
Female Sprague-Dawley rats were from Charles River. NRVMs were isolated as previously described.7 Briefly, hearts from 1-2 day old rat pups were minced, digested serially in collagenase (Worthington)-containing solution, filtered, then pre-plated to exclude non-myocyotes. NRVMs were then plated on laminin-coated dishes in DMEM with 5% fetal bovine serum (Sigma F2442) for 24 hours. Experiments were carried out after 36-96 hours of serum starvation in the presence of insulin, transferrin, and BrdU. […]
All results are presented as mean±SEM. […] EC50 for ERK activation was calculated using sigmoidal dose-response analysis (Prism).

NC[C@H](O)c1ccc(O)c(O)c1 [norepinephrine]
increase of pERK/ERK ratio: roughly 1.5 fold

From patent publication US11213514B2, “Alpha-1-adrenergic receptor agonist therapy” (The Regents of the University of California, priority 2016, dated 2022)
